Experimental data from patent publication US12383535B2, “Hydrogen peroxide-responsive KEAP1-NRF2 ppi inhibitor prodrug, and preparation method therefor” (CHINA PHARMACEUTICAL UNIVERSITY, priority 2019, dated 2025).

Assays:
[1] = Aqueous solubility (pSOL); assay type: physicochemical
Experimental: (§1) Through Avdeef-Bucher potentiometric titration, pKa and partition coefficients (log D, pH 7.4) were determined on a Gemini Profiler instrument (pION) according to the method of Avdeef and Tsinman. pH measurements were used to determine the intrinsic solubility.
Potential solubility data were obtained with a pSOL model 3 instrument (pION INC, Cambridge, Massachusetts, USA). Cell membrane permeability was determined on a PAMPA Explorer instrument (pION).

C57BL/6 mice = experiment: LPS-induced mouse acute inflammation model; assay type: in vivo; settings: LPS 300 μg/kg mice
Experimental: Female C57BL/6 mice (6-8 weeks old, 18-20 g in weight) were acclimatized with drinking water for 2 days, and were randomized to eight groups: (A) control group (n=3); (B) LPS (Sigma-Aldrich, St. Louis, No. L4130) model group (300 μg/kg/day, n=8); (C) LPS (300 μg/kg/day)+pro2 low-dose (10 mg/kg/day) group (n=8); (D) LPS (300 μg/kg/day)+pro2 high-dose (40 mg/kg/day) group (n=8); (E) LPS (300 μg/kg/day)+active parent compound 2 high-dose (40 mg/kg/day) group (n=8); (F) LPS (300 μg/kg/day)+dexamethasone low-dose (10 mg/kg/day) group (n=8); (G) pro2 high-dose (40 mg/kg/day) group (n=3); and (H) active parent compound 2 high-dose (40 mg/kg/day) group (n=3). Animals of groups A, G and H were given IP injections of 500 μL of normal saline each time (on days −3, −2 and −1). All LPS-stimulated mice were IP-injected with 500 μL of LPS (on days −3, −2 and −1), and 4 h after the injection the mice were given corresponding compound treatment (on days −3, −2 and −1). Animals were sacrificed (day 0) 24 h after the last dose of the compound to collect the serum, and the levels of cytokine IL-1β, IL-6, TNF-α and IFN-γ in the serum were determined by ELISA.

[2] = pKa and log D by Avdeef-Bucher potentiometric titration; assay type: physicochemical
Experimental: as §1

RAW264.7 cells [3] = experiment: IL-1β, IL-6, TNF-α and NO assays in cell culture supernatant; assay type: cell-based, mouse
Experimental: IL-1β (IL-1β (m) ELISA kit, EK0394, Boster), IL-18 (IL-18 (m) ELISA kit, EMC011, NeoBioscience), IL-6 (IL-6 (m) ELISA kit EK0411, Boster), TNF-α (TNF-α (m) ELISA kit, EK0527, Boster) and NO (nitrate/nitrite assay kit, S0023, Beyotime, China) were tested using commercially available kits according to the manufacturer's instructions.
Then, several inflammatory mediators closely related to ROS, including IL-1β, IL-6, TNF-α and NO, were further evaluated.

[4] = tested on: IL-1β and IL-6 protein in RAW264.7 cells; experiment: Western blot of IL-1β and IL-6 protein levels; assay type: cell-based, mouse; settings: same concentration
Experimental: (§2) Anti-Nrf2 (ab62352) and anti-IL-1β (ab45692) antibodies were purchased from Abcam Technology (England). Anti-HO-1 (SC-136960) and anti-NQO1 (SC-271116) antibodies were purchased from Santa Cruz Biotechnology (California, USA). Anti-β-Actin (60008-1-Ig) and anti-GCLM (14241-1-AP) antibodies were purchased from Proteintech Group (USA). Cell sampling and western blot were performed as previously reported (M.-C. Lu, J.-A. Ji, Y.-L. Jiang, Z.-Y. Chen, Z.-W. Yuan, Q.-D. You, Z.-Y. Jiang, An inhibitor of the Keap1-Nrf2 protein-protein interaction protects NCM460 colonic cells and alleviates experimental colitis, Sci. Rep., 6 (2016) 26585).

[5] = In vivo pharmacokinetic study; design: species or system SD rats; settings: rat
Experimental: Six male SD rats weighing about 260 g were used, with 3 rats for PO study and the other 3 rats for IV study. The test compound was dissolved in normal saline with a cosolvent to prepare a solution before the study. For the PO study, animals were administered orally (10 mg/kg). […] Blood was sampled at 0.0833, 0.25, 0.5, 1, 2, 4, 6, 8, 24 h in groups IV and PO. The blood samples were preserved on ice and then centrifuged at 2000 rpm and 4° C. for 10 min for separating plasma. The plasma samples were transferred and stored at −80° C. before analysis by LC-MS/MS.

[6] = tested on: Nrf2 and downstream antioxidant enzyme in RAW264.7 cells; experiment: Western blot of Nrf2 targeting proteins; assay type: cell-based, mouse; settings: LPS, same concentration
Experimental: as §2
To determine the effect of pro2 on Nrf2-ARE-driven gene transcription, mRNA levels of Nrf2 and three downstream genes, HO-1, NQO1 and GCLM, were examined ((A) of FIG. 4 to (D) of FIG. 4). […] The protein levels of the above genes were determined by western blot.

RAW264.7 cells [7] = experiment: Antioxidant capacity assays (SOD, GSH-Px, GSH/GSSG, MPO); assay type: cell-based, mouse
Text: Subsequently, to investigate the effect of pro2 on antioxidant capacity in inflammatory conditions, the activities of superoxide dismutase (SOD) and glutathione peroxidase (GPx) were examined. […] In addition, the GSH/GSSG ratio and myeloperoxidase (MPO) activity were also examined, which are two important markers indicating oxidative stress.

COc1ccc(S(=O)(=O)Nc2ccc(N(CC(=O)N3CCSC3=O)S(=O)(=O)c3ccc(OC)cc3)c3ccccc23)cc1 [pro2]
Aqueous solubility at pH 7.4 [1]: 879.6 μg/mL | anti-inflammatory effect (serum IL-1β, IL-6, TNF-α, IFN-γ) (C57BL/6 mice; compound 10 mg/kg): comparable therapeutic effect to dexamethasone | anti-inflammatory effect (serum IL-1β, IL-6, TNF-α, IFN-γ) (C57BL/6 mice; compound high dose 40 mg/kg, oral): stronger effect | pKa [2]: 4.53 | LogD at pH 7.4 ([2]; pH 7.4): 2.34 | production of IL-1β, IL-6 and TNF-α in supernatant (RAW264.7 cells [3]; LPS-treated RAW264.7 cell culture): significant advantages in inhibiting production | EC50 (RAW264.7 cells [3]; Mus musculus, LPS-stimulated RAW264.7 cells, read-out: EC50 for reduction of extracellular NO concentration): 0.12 µM | LPS-induced IL-1β and IL-6 protein expression [4]: almost completely inhibited | AUC0-t ([5]; I.V. 2 mg/kg): 1842 ± 363 ng·h/mL | AUC0-∞ ([5]; I.V. 2 mg/kg): 1854 ± 366 ng·h/mL | Cl_F ([5]; I.V. 2 mg/kg): 18.5 ± 3.9 mL/min/kg | MRT ([5]; I.V. 2 mg/kg): 1.25 ± 0.30 h | T1/2 ([5]; I.V. 2 mg/kg): 4.41 ± 3.01 h | Vz_F ([5]; I.V. 2 mg/kg): 6.44 ± 4.09 L/kg | AUC0-t ([5]; P.O. 10 mg/kg): 6203 ± 248 ng·h/mL | AUC0-∞ ([5]; P.O. 10 mg/kg): 6315 ± 273 ng·h/mL | Cl_F ([5]; P.O. 10 mg/kg): 26.4 ± 1.14 mL/min/kg | Cmax ([5]; P.O. 10 mg/kg): 2753 ± 15.3 ng/mL | MRT ([5]; P.O. 10 mg/kg): 1.82 ± 0.35 h | T1/2 ([5]; P.O. 10 mg/kg): 2.09 ± 0.93 h | Tmax ([5]; P.O. 10 mg/kg): 0.67 ± 0.29 h | Vz_F ([5]; P.O. 10 mg/kg): 4.79 ± 2.17 L/kg | bioavailability ([5]; oral): 68.1% | protein levels of Nrf2 and downstream antioxidant enzyme [6]: significantly increased levels of Nrf2 and downstream antioxidant enzyme | SOD and GSH-Px activity (RAW264.7 cells [7]; LPS 20 ng/mL): restored the SOD and GSH-Px activity significantly | GSH/GSSG ratio and MPO activity (RAW264.7 cells [7]; LPS exposure): return markers to near normal
